{"source": "patent US4666929A", "about": "“Anthranilic acid ester derivatives and antiinflammatory and analgetic external preparations containing the same” (Shiseido Company Ltd., priority 1985, dated 1987)", "key": {"[1]": {"tested_on": "pain induced by the brewer's yeast", "assay": "Evaluation Test Example 7 (Analgetic Activity), Randall-Selitto method", "type": "in vivo, rat", "details": "topical, 2.5 mg/paw, 5 hours after injection of brewer's yeast", "method": "This method is admitted as a standard method for evaluating non-anesthetic analgesic agent.\nThe test sample compounds were applied to the both foot pad of hind paws of the rats each in an application amount of 50 μl as a 2.5% ethanol solution. After one hour, 50 μl each of the ethanol solution of the sample compound was again applied and 0.1 ml of a 5% brewer's yeast/physiological saline was immediately subcutaneously applied to one foot pad of the rat as a pain inducing substance. After a predetermined time period, the weight of the pain generation was measured using a horizontal balance type presser and the decrease rate (P1) of the pain threshold value was determined. The above-mentioned evaluation test procedure was also carried out in the control rat group, except that the solvent containing no sample compounds was applied. Thus, the decrease rate (P0) of the pain threshold value in the control group was determined. The inhibition (%) of the pain induced by the brewer's yeast was calculated as follows: [formula] When this value is large, the analgetic activity is high."}, "in vivo [2]": {"assay": "in vivo", "details": "mouse, in vivo; oral, ICR female mice", "method": "(§1) The evaluation test was carried out using ICR female mice (i.e., body weight=18 to 22 g, 10 mice in each group).\n(§2) The sample compounds listed in Table 3 were dispersed in 2.0% carboxymethyl cellulose/physiological saline solution and orally administered in a given amount by a peroral syringe. After the administration, the toxic conditions were observed and the oral acute toxicity (LD50) was calculated from the death number according to a Van Der Werden method."}, "ICR female mice": {"tested_on": "ICR female mice", "assay": "in vivo", "method": "as §1, §2"}, "[3]": {"tested_on": "carrageenan foot pad edema", "assay": "Evaluation Test Example 4 (Antiinflammatory Activity), rat/carrageenan foot pad edema method", "type": "in vivo", "details": "oral, 100 mg/kg; for Prevention % (carrageenan edema): 5 hours after λ-carrageenan injection", "method": "(§3) The antiinflammatory effects of the present compounds were determined according to the so-called rat/carrageenan foot pad edema method. This method is admitted as a standard test method for determining antiinflammatory effects, because this method has a high correlationship with human antiinflammatory effects.\n(§4) The evaluation test was carried out using Wister male rats (i.e., body weight =110-130 g, 8 rats in each group) according to a Winter et al method set forth in \"Proceedings of the Society for Experimental Biology & Medicine, 111, p 554, 1962).\n(§5) The sample compounds listed in Table 4 were dispersed in a 0.5% aqueous carboxymethyl cellulose solution and orally administered in a dosage of 100 mg/kg. One hour after the administration, 0.1 ml of a 1% λ-carrageenan/physiological saline was subcutaneously applied to the foot pad of one paw of the rat as an inflammatory inducing substance. Thus, the edema was caused. The volumes of the foot pad were measured in the predetermined constant time period before and after the administration and the increase (V1) in the volume was calculated. On the other hand, the increase (V0) in the volume of the foot pad of the control rats, to which the aqueous 0.5% carboxymethyl cellulose solution containing no test sample compounds, was determined by injecting the λ-carageenan. Thus, the inhibition (%) of the carageenan edema was calculated as follows: [formula] The antiinflammatory activity is high when this value is large.\nThe evaluation test of 2-furanmethyl-N-(2,3-xylyl) anthranilate was carried out in the same manner as in Evaluation Test Example 3."}, "UV induced erythema [4]": {"tested_on": "UV induced erythema", "assay": "Evaluation Test Example 6 (Antiinflammatory Activity), ultraviolet erythema method", "type": "in vivo, guinea pig", "details": "topical; for Prevention % (UV induced erythema): 25 μg/cm^2, 3 hours after UV irradiation", "method": "(§6) Healthy Hartley strain albino guinea pigs (i.e., body weight=450-500 g, 10 pigs in each group) were used as the test animals. The back skin of the guinea pigs was clipped and shaved, and sections having a size of 1.41 cm×1.41 cm were prepared in the back skin, by using a rubber plate, symmetrically spaced from the back center line. The divided sections were irradiated with ultraviolet ray having a medium wavelength (i.e., 280-320 nm, λmax =305 nm) to induce erythema. After the UV irradiation, 10 μl of a solution of the test sample compound in olive oil was applied to the sections on one side. The formation of the erythema was observed over a period of time. The average erythema (E1) in the section to which the sample compound was applied and the average erythema (E0) in the section to which no sample compounds were applied were measured. […] [formula] When the inhibitory value (%) is large, the antiinflammatory activity of the sample compound is high.\nThe anti-inflammatory activity test of 2-furanmethyl-N-(2,3-xylyl)anthranilate was carried out in the same manner as in Evaluation Test Example 5."}, "[5]": {"tested_on": "carrageenan foot pad edema", "assay": "Evaluation Test Example 3 (Antiinflammatory Activity), rat/carrageenan foot pad edema method", "type": "in vivo", "details": "oral, 100 mg/kg, 5 hours after λ-carrageenan injection", "method": "as §3, §4, §5"}, "UV induced erythema [6]": {"tested_on": "UV induced erythema", "assay": "Evaluation Test Example 5 (Antiinflammatory Activity), ultraviolet erythema method", "type": "in vivo, guinea pig", "details": "topical, 25 μg/cm^2, 3 hours after UV irradiation", "method": "The evaluation test of N-(2,3-xylyl) anthranilic acid derivatives was carried out according to the so-called ultraviolet erythema method.\nas §6"}, "[7]": {"details": "background art; cited from earlier work"}, "[8]": {"details": "oral administration, background art; cited from earlier work"}, "in vivo [9]": {"assay": "in vivo", "details": "mouse, oral, ddY male mice, 7 days of observation", "method": "The evaluation test was carried out using ddY male mice (i.e., body weight =18 to 22 g, 10 mice in each group).\nas §2, with “compound” for “compounds”, “2 was” for “3 were”, “0.5%” for “2.0%”, “number during 7 days of observation” for “number”, “Litchfield Wilcoxon” for “Van Der Werden”"}}}
{"smiles": "Cc1cccc(Nc2ccccc2C(=O)OCCc2ccccn2)c1C", "note": "[2-(2-pyridyl)ethyl-N-(2,3-xylyl)anthranilate]", "values": [{"measurement": "Inhibition % (pain induced by brewer's yeast)", "setting": "[1]", "result": 45.5, "unit": "%"}]}
{"smiles": "CC(C)Cc1ccc(C(C)C(=O)OCc2ccccn2)cc1", "note": "(centres unmarked) [2-(p-isobutylphenyl)propionic acid-2-pyridylmethyl ester, reference compound]", "values": [{"measurement": "Inhibition % (pain induced by brewer's yeast)", "setting": "[1]", "result": 39.2, "unit": "%"}]}
{"smiles": "Cc1cccc(Nc2ccccc2C(=O)OCc2ccco2)c1C", "note": "[2-furanmethyl-N-(2,3-xylyl)anthranilate]", "values": [{"measurement": "LD50", "setting": "in vivo [2]", "result": 5480, "unit": "mg/kg"}, {"measurement": "LD50 relative to known N-(2,3-xylyl)anthranilic acid", "setting": "ICR female mice; oral", "result": "about 4 times higher"}, {"measurement": "toxicity", "setting": "ICR female mice; oral acute toxicity, in words", "result": "very low"}, {"measurement": "Prevention % (carrageenan edema)", "setting": "[3]", "result": 50.7, "unit": "%"}, {"measurement": "edema inhibitory activity versus N-(2,3-xylyl)anthranilic acid", "setting": "[3]; in words", "result": "as strong as for the known N-(2,3-xylyl)anthranilic acid"}, {"measurement": "Prevention % (UV induced erythema)", "setting": "UV induced erythema [4]", "result": 54.3, "unit": "%"}, {"measurement": "erythema [inhibition] versus N-(2,3-xylyl)anthranilic acid", "setting": "UV induced erythema [4]; 25 μg/cm^2, in words", "result": "stronger than that of the known N-(2,3-xylyl)anthranilic acid"}, {"measurement": "Inhibition % (pain induced by brewer's yeast)", "setting": "[1]", "result": 56.5, "unit": "%"}]}
{"smiles": "Cc1cccc(Nc2ccccc2C(=O)OCc2ccccn2)c1C", "note": "[2-pyridylmethyl-N-(2,3-xylyl)anthranilate]", "values": [{"measurement": "Inhibition % (pain induced by brewer's yeast)", "setting": "[1]", "result": 53.6, "unit": "%"}]}
{"smiles": "Cc1cccc(Nc2ccccc2C(=O)OCc2cccnc2)c1C", "note": "[3-pyridylmethyl-N-(2,3-xylyl)anthranilate]", "values": [{"measurement": "Inhibition % (pain induced by brewer's yeast)", "setting": "[1]", "result": 48.3, "unit": "%"}]}
{"smiles": "Cc1cccc(Nc2ccccc2C(=O)O)c1C", "note": "[N-(2,3-xylyl)anthranilic acid, reference compound]", "values": [{"measurement": "Inhibition % (carrageenan edema)", "setting": "[5]", "result": 56.8, "unit": "%"}, {"measurement": "Prevention % (carrageenan edema)", "setting": "[3]", "result": 46.8, "unit": "%"}, {"measurement": "Inhibition % (UV induced erythema)", "setting": "UV induced erythema [6]", "result": 32.8, "unit": "%"}, {"measurement": "Prevention % (UV induced erythema)", "setting": "UV induced erythema [4]", "result": 35.4, "unit": "%"}, {"measurement": "Inhibition % (pain induced by brewer's yeast)", "setting": "[1]", "result": 32.8, "unit": "%"}, {"measurement": "solubility in water, an alcohol, or an oil", "setting": "[7]", "result": "very difficult to dissolve"}, {"measurement": "side effects", "setting": "[8]", "result": "various side effects including enterogasteric disorders, renal disorders, and vertigo occur"}]}
{"smiles": "Cc1cccc(Nc2ccccc2C(=O)OCc2ccccn2)c1C", "note": "[drawing 4]", "values": [{"measurement": "LD50 at 168 h", "setting": "in vivo [9]", "result": 4420, "unit": "mg/kg"}]}
{"smiles": "Cc1cccc(Nc2ccccc2C(=O)OCc2cccnc2)c1C", "note": "[drawing 5]", "values": [{"measurement": "LD50 at 168 h", "setting": "in vivo [9]", "result": 3820, "unit": "mg/kg"}]}
{"smiles": "Cc1cccc(Nc2ccccc2C(=O)OCc2ccncc2)c1C", "note": "[drawing 6]", "values": [{"measurement": "LD50 at 168 h", "setting": "in vivo [9]", "result": 4850, "unit": "mg/kg"}]}
{"smiles": "Cc1cccc(Nc2ccccc2C(=O)OCCc2ccccn2)c1C", "note": "[drawing 7]", "values": [{"measurement": "LD50 at 168 h", "setting": "in vivo [9]", "result": 4100, "unit": "mg/kg"}]}
{"smiles": "Cc1cccc(Nc2ccccc2C(=O)OCCCc2cccnc2)c1C", "note": "[drawing 8]", "values": [{"measurement": "LD50 at 168 h", "setting": "in vivo [9]", "result": 3750, "unit": "mg/kg"}]}
{"smiles": "Cc1cccc(Nc2ccccc2C(=O)OCc2ccccn2)c1C", "note": "[drawing 9]", "values": [{"measurement": "Inhibition % (carrageenan edema)", "setting": "[5]", "result": 61.3, "unit": "%"}]}
{"smiles": "Cc1cccc(Nc2ccccc2C(=O)OCc2cccnc2)c1C", "note": "[drawing 10]", "values": [{"measurement": "Inhibition % (carrageenan edema)", "setting": "[5]", "result": 55.2, "unit": "%"}]}
{"smiles": "Cc1cccc(Nc2ccccc2C(=O)OCc2ccncc2)c1C", "note": "[drawing 11]", "values": [{"measurement": "Inhibition % (carrageenan edema)", "setting": "[5]", "result": 53.5, "unit": "%"}]}
{"smiles": "Cc1cccc(Nc2ccccc2C(=O)OCc2ccccn2)c1C", "note": "[drawing 12]", "values": [{"measurement": "Inhibition % (UV induced erythema)", "setting": "UV induced erythema [6]", "result": 47.6, "unit": "%"}]}
{"smiles": "Cc1cccc(Nc2ccccc2C(=O)OCc2cccnc2)c1C", "note": "[drawing 13]", "values": [{"measurement": "Inhibition % (UV induced erythema)", "setting": "UV induced erythema [6]", "result": 51.3, "unit": "%"}]}
{"smiles": "Cc1cccc(Nc2ccccc2C(=O)OCc2ccncc2)c1C", "note": "[drawing 14]", "values": [{"measurement": "Inhibition % (UV induced erythema)", "setting": "UV induced erythema [6]", "result": 43.1, "unit": "%"}]}
{"smiles": "Cc1cccc(Nc2ccccc2C(=O)OCCc2ccccn2)c1C", "note": "[drawing 15]", "values": [{"measurement": "Inhibition % (UV induced erythema)", "setting": "UV induced erythema [6]", "result": 35.4, "unit": "%"}]}
{"smiles": "Cc1cccc(Nc2ccccc2C(=O)OCCCc2cccnc2)c1C", "note": "[drawing 16]", "values": [{"measurement": "Inhibition % (UV induced erythema)", "setting": "UV induced erythema [6]", "result": 33.2, "unit": "%"}]}
